The assay has as its system T. brucei microsomes (TbRM). Nature of the assay: Post-translational import of VSG-11786 into TbRM with inhibitors (Example 4). The note with it: 10 μM. In kind it is biochemical, Trypanosoma brucei. The procedure:
FIGS. 7A to 7C. […] VSG-11786 mRNA was translated in rabbit reticulocyte lysate in the absence or presence of T. brucei cytosol for 1 hour at 37° C., and then cycloheximide was added to stop protein synthesis. TbRM (1 equivalent) and MAL3-101 (10 μM), MAL3-51 (10 μM), or an equal volume of DMSO was added to the samples on ice, and the mixture was incubated at 37° C. for 1.5 hours for translocation of VSG-11786 into the microsomes. Reaction mixtures were treated with proteinase K (PK) for one hour on ice. Proteolysis was terminated with PMSF. Proteins were precipitated with ammonium sulfate, pelleted by centrifugation, resuspended in SDS-PAGE sample buffer, and resolved by Tris-Tricine SDS-PAGE. Gel images were obtained with a phosphorimager and analyzed with Quantity-One software. Reaction mixtures for odd numbered lanes contained TbRM, but not proteinase K; even numbered lanes contained TbRM and proteinase K. Brackets denote lanes that were compared to obtain percentage of VSG-11786 import values. FIG. 7B is a graphical representation of data from FIG. 7A. […] In FIG. 7C, the effect of MAL3-101 on T. brucei growth.
FIGS. 8A to 8D. Effects of NFI028 and CAM741 on import of VSG-11786 into T. brucei microsomes. […] VSG-11786 mRNA was translated in rabbit reticulocyte lysate in the presence of T. brucei cytosol for one hour at 37° C., and then protein synthesis was stopped by the addition of cycloheximide. […] Reaction mixtures were treated with proteinase K (PK) on ice for one hour. Proteolysis was terminated with PMSF. Proteins were precipitated with ammonium sulfate, pelleted, resuspended in SDS-PAGE sample buffer, and resolved by Tris-Tricine SDS-PAGE. Images of radiolabeled proteins were obtained with a phosphorimager and quantitated with Quantity-One software. Samples depicted in odd numbered lanes contained TbRM, but were not treated proteinase K. Reaction mixtures shown in even numbered lanes contained TbRM and were treated with proteinase K. Brackets denote lanes that were compared to each other in order to obtain percentage of VSG-11786 import values. FIG. 8B is a graphical representation of data from FIG. 8A.
FIGS. 9A to 9D. Effects of azide, AEE788, and valinomycin on VSG-11786 import into T. brucei microsomes. […] VSG-11786 mRNA was translated in rabbit reticulocyte lysate in the presence of T. brucei cytosol for one hour at 37° C. Cycloheximide was added to stop proteins synthesis. TbRM (1 equivalent) and sodium azide (8 μM), AEE788 (8 μM), an equal volume of microsome buffer (RMB) or DMSO was added to the samples on ice, and the mixtures were incubated at 37 C for 1.5 hours. Reaction mixtures were treated with proteinase K (PK) on ice for one hour. Proteolysis was terminated with PMSF. Proteins were precipitated with ammonium sulfate, pelleted, resuspended in SDS-PAGE sample buffer, and resolved by Tris-Tricine SDS-PAGE. Images of radiolabeled proteins were obtained with a phosphorimager and quantitated with Quantity-One software. Brackets show lanes that were compared to each other in order to obtain percentage of VSG-11786 imported into TbRM. Lanes 1, 3, 5, & 7 were treated with TbRM, but not proteinase K. Lanes 2, 4, 6, & 8 were treated with TbRM and proteinase K. FIG. 9B is a graphical representation of data from FIG. 9A. […] Reaction mixtures depicted in odd lanes contained TbRM, but were not treated with proteinase K; even lanes contained TbRM and were treated with proteinase K. FIG. 9D is a graphical representation of data from panel FIG. 9C.

For the compound `CCCCCCN(C(=O)CCCCCN1C(=O)NC(c2ccc(-c3ccccc3)cc2)C(C(=O)OCc2ccccc2)=C1C)C(C(=O)NCCCC)c1ccc(OCC(=O)OC)c(C(=O)OC)c1` (centres unmarked) [MAL3-101], the “reduction of VSG-11786 import into TbRM compared to DMSO control” value (absence of T. brucei cytosol) is recorded as 54%. In addition, the “VSG-11786 imported into TbRM” value (presence of T. brucei cytosol) is 90%.

Source of the values: patent US8246966B2, “Trypanosome microsome system and uses thereof” (priority 2006, dated 2012).
